{"source": "patent US9750677B2", "about": "“Use of metal complexes which are mimetics of SOD as food agents and as cosmetics” (Universitat de València, priority 2014, dated 2017)", "tested_on": "Medaka embryos", "experiment": "Survival analysis using Medaka fish embryos, mortality at 72 hours in H2O2", "type": "in vivo, Medaka (Oryzias latipes)", "details": "stage 8 embryos pre-treated 4 days with 100 μM vitamin C, then 72 hours in 22.5 mM H2O2; for mortality, mean (± standard error in text): 6 replicates", "description": "Individual adults (strain Cab, Carolina Biological Supply, (North Carolina)), were held in tanks with continuous water flow at 27° C., and a photoperiod of 14 hours of light and 10 hours of darkness. The fish were fed twice a day with Artemia nauplii, which were hatched daily from commercial Sanders® cysts, and with dry food once per day.\nFertilized eggs were collected daily, deposited in Yamamoto solution (0.13 M NaCl, 2.7 mM KCl, 1.8 mM CaCl2 and 0.24 mM NaHCO3, pH 7.3) (Yamamoto T., Medaka (killifish): Biology and strains. 1975, Tokyo: Keigaku Pub. Co), and were kept in the incubator at 26° C. The embryo stage was determined according to the description of Iwamatsu (Iwamatsu T., Stages of normal development in the medaka Oryzias latipes. Mech Dev. 2004, Vol. 121, pages 605-618).\nMedaka embryos that were in stage 8 (early morula stage, Iwamatsu, 2004) were separated into 2 groups of 60 embryos and one group of 30 embryos. A group of 60 embryos were treated for 4 days with Pytren-4Q+Mn dissolved in Yamamoto solution at a concentration of 250 μM. The other group of 60 embryos were incubated for 4 days in Yamamoto solution. This group was used as a negative control. The group of 30 embryos, positive control group, were treated for 4 days with a Yamamoto solution of vitamin C, an antioxidant compound, at a concentration of 100 μM. After 4 days of incubation, the embryos were washed with Yamamoto solution. The groups of 60 embryos were separated one by one into two groups of 30 embryos. The embryos of all the groups were individually placed into the wells of 96-well plates, each well containing 200 μl of Yamamoto solution with H2O2, at different concentrations depending on the extension of incubation time at which mortality was observed. […] Thirty embryos of each initial group of 60 embryos and the 30 embryos of the group treated with vitamin C were treated with H2O2 Yamamoto solution at a concentration of 22.5 mM. […] Thirty embryos of each initial group of 60 embryos were treated with H2O2 Yamamoto solution at a concentration of 7.5 mM. […]", "note": "Several values for one entry are separate records, joined by “and”; a condition that tells them apart may be missing. Equal entries are not always repeated."}
{"compound": "O=C1O[C@H]([C@@H](O)CO)C(O)=C1O", "note": "[vitamin C]", "values": [{"measurement": "mortality, mean (± standard error in text)", "value": "25.99±5.25", "unit": "%"}, {"measurement": "mortality, mean (± standard error in text)", "setting": "listed as Vitamin C", "value": 25.99, "unit": "%"}, {"measurement": "mortality, single replicates", "setting": "30 embryos per replicate", "value": "14.3% and 20.8% (2×) and 40.63% and 43.75% and 15.63%"}]}
